Measured values from article PMC12649549, “Sequence Permutation Generated Lysine and Tryptophan-Rich Antimicrobial Peptides with Enhanced Therapeutic Index” (Antibiotics, 2025).
Read-outs that look alike come from different tables or passages of the source.

How the values were obtained:
[1] = test system: S. aureus ATCC 6538
Procedure: (§1) The antibacterial and salt-resistant activity of the peptides was tested using Escherichia coli (ATCC 25922), Pseudomonas aeruginosa Migula (ATCC 27853), Acinetobacter sp. (BCRC number 14B0091, BCRC number 14B0097, and BCRC number 14B0100), and Staphylococcus aureus sp. strains (ATCC 25923, ATCC 33591, ATCC 33592, ATCC 33593, and ATCC 6538). All bacteria were obtained from the Food Industry Research and Development Institute (Hsinchu, Taiwan) and cultured in sterilized Müller-Hinton (MH) broth at 37 °C and 200 rpm for 8 h. The inoculum concentrations were determined by measuring the optical density at 600 nm (OD 600 = 1, approximately 10^8 CFU/mL) using an Ultrospec 2100 pro UV-Visible spectrophotometer (Biochrom Ltd., Cambridge, UK) after 8 h of culture.
(§2) The antibacterial activities of the peptides in Müller-Hinton (MH) broth and modified LYM broth were determined using the standard broth microdilution method as per Clinical and Laboratory Standards Institute (CLSI) guidelines. The LYM broth was prepared with specific components and adjusted to different conditions, including varying concentrations of NaCl and MgCl2, and different pH levels. To prepare the LYM broth, 5.4 mM KCl, 5.6 mM Na2HPO4, 0.5 mM MgSO4, and 1.0 mM sodium citrate were added. Additionally, 0.4 mg of ZnCl2, 2.0 mg of FeCl3·6H2O, 0.1 mg of CuSO4·5H2O, 0.1 mg of MnSO4·H2O, 0.1 mg of Na2B4O7∙10H2O, 700 mg of amino acid mixtures without tryptophan (Takara Bio Inc., San Jose, CA, USA), and 20 mg of L-tryptophan were added per liter of medium. The pH was adjusted to 7.4, and a vitamin mixture (100X, Sigma) and glucose concentration of 2% were added. For different conditions of LYM broth, NaCl concentrations of 300, 200, 150, and 50 mM, MgCl2 concentrations of 2.5, 1.5, and 0.5 mM, and pH levels of 6.5, 5.5, and 4.5 were adjusted. Bacterial strains were incubated in MH broth overnight, regrown, and diluted to a final concentration of 5 × 10^5 CFU/mL. Peptides were added to each well at final concentrations of 50, 25, 12.5, 6.25, 3.13, 1.56, and 0.78 µg/mL, and 99 µL of diluted microbes was loaded into each well of a polypropylene 96-well plate. […] The Morpheus HeatMap software (https://software.broadinstitute.org/morpheus/) was used to display MIC values on a color scale. All experiments were independently repeated three times.

[2] = test system: A. baumannii 14B0097 (Acinetobacter sp., BCRC number 14B0097)
Procedure: as §1, §2

[3] = test system: Gram-positive bacteria; assay: Geometric mean MIC and therapeutic index, Gram-positive bacteria; assay type: cell-based; conditions: Gram-positive bacteria; for GM G+ (geometric mean of the MIC values): MH broth, MIC >50 µg/mL counted as 100 µg/mL; for Therapeutic Index (TI) G+: HC10/GM
Procedure: (§3) In this study, we aimed to investigate the potential of W5K series peptides for therapeutic use. To evaluate their efficacy for antibacterial therapy, we used the Therapeutic Index (TI) as a measure of their cell selectivity. The TI was calculated as the ratio of the concentration causing 10% hemolysis of human red blood cells (HC10) to the geometric mean minimum inhibitory concentration (GM) of the peptides against both Gram-negative and Gram-positive bacteria. This parameter was used to quantitatively assess the balance between antibacterial potency and cytotoxicity among the W5K derivatives.
as §2

[4] = test system: Gram-negative bacteria; assay: Geometric mean MIC and therapeutic index, Gram-negative bacteria; assay type: cell-based; conditions: Gram-negative bacteria; for GM G− (geometric mean of the MIC values): MH broth, MIC >50 µg/mL counted as 100 µg/mL; for Therapeutic Index (TI) G−: HC10/GM
Procedure: as §3, §2

[5] = test system: S. aureus ATCC 33592
Procedure: as §1
as §2, with “For different conditions of LYM broth, NaCl concentrations of 300, 200, 150, and 50 mM, MgCl2 concentrations of 2.5, 1.5, and 0.5 mM, and pH levels of 6.5, 5.5, and 4.5 were adjusted.” left out

[6] = LYM broth, 0 mM NaCl, 16 h, 37 °C
[7] = LYM broth, 50 mM NaCl, 16 h, 37 °C
[8] = LYM broth, 100 mM NaCl, 16 h, 37 °C
[9] = LYM broth, 200 mM (NaCl), 16 h, 37 °C
[10] = LYM broth, 300 mM (NaCl), 16 h, 37 °C
[11] = MH broth, 5 × 10^5 CFU/mL, 16 h, 37 °C, repeated three times

Substance: Ac-WRKWLKWLAKKKK-NH2 [Peptide W5K02]
- MIC [1, 6]: 6.25 µg/mL
- MIC ([1]; LYM broth, 0.5 mM MgCl2): 3.13 µg/mL
- MIC ([1]; LYM broth, 1.5 mM MgCl2): 3.13 µg/mL
- MIC ([1]; LYM broth, 2.5 mM MgCl2): 6.25 µg/mL
- MIC [1, 7]: 6.25 µg/mL
- MIC [1, 8]: 12.5 µg/mL
- MIC [1, 9]: 25 µg/mL
- MIC [1, 10]: 50 µg/mL
- MIC ([1]; LYM broth, pH 4.5): 6.25 µg/mL
- MIC ([1]; LYM broth, pH 5.5): 3.13 µg/mL
- MIC ([1]; LYM broth, pH 6.5): 3.13 µg/mL
- MIC [1, 11]: 12.5 µg/mL
- MIC [2, 6]: 1.56 µg/mL
- MIC ([2]; LYM broth, 0.5 mM MgCl2): 1.56 µg/mL
- MIC ([2]; LYM broth, 1.5 mM MgCl2): 3.13 µg/mL
- MIC ([2]; LYM broth, 2.5 mM MgCl2): 3.13 µg/mL
- MIC [2, 7]: 1.56 µg/mL
- MIC [2, 8]: 1.56 µg/mL
- MIC [2, 9]: 3.13 µg/mL
- MIC [2, 10]: 6.25 µg/mL
- MIC ([2]; LYM broth, pH 4.5): 3.13 µg/mL
- MIC ([2]; LYM broth, pH 5.5): 3.13 µg/mL
- MIC ([2]; LYM broth, pH 6.5): 3.13 µg/mL
- MIC [2, 11]: 3.13 µg/mL
- GM G+ (geometric mean of the MIC values) [3]: 21.8 µg/mL
- Therapeutic Index (TI) G+ [3]: 0.8
- GM G− (geometric mean of the MIC values) [4]: 7.2 µg/mL
- Therapeutic Index (TI) G− [4]: 2.3
- MIC [5, 6]: 6.25 µg/mL
- MIC ([5]; LYM broth, 0.5 mM MgCl2): 6.25 µg/mL
- MIC ([5]; LYM broth, 1.5 mM MgCl2): 6.25 µg/mL
- MIC ([5]; LYM broth, 2.5 mM MgCl2): 6.25 µg/mL
- MIC [5, 7]: 6.25 µg/mL
- MIC [5, 8]: 12.5 µg/mL
- MIC [5, 9]: 50 µg/mL
- MIC [5, 10]: >50 µg/mL
- MIC ([5]; LYM broth, pH 4.5): 6.25 µg/mL
- MIC ([5]; LYM broth, pH 5.5): 6.25 µg/mL
- MIC ([5]; LYM broth, pH 6.5): 6.25 µg/mL
- MIC [5, 11]: 25 µg/mL

Substance: Ac-LKWLAKKKKWRKW-NH2 [Peptide W5K06]
- MIC [1, 6]: 6.25 µg/mL
- MIC ([1]; LYM broth, 0.5 mM MgCl2): 3.13 µg/mL
- MIC ([1]; LYM broth, 1.5 mM MgCl2): 3.13 µg/mL
- MIC ([1]; LYM broth, 2.5 mM MgCl2): 6.25 µg/mL
- MIC [1, 7]: 6.25 µg/mL
- MIC [1, 8]: 25 µg/mL
- MIC [1, 9]: 50 µg/mL
- MIC [1, 10]: >50 µg/mL
- MIC ([1]; LYM broth, pH 4.5): 6.25 µg/mL
- MIC ([1]; LYM broth, pH 5.5): 6.25 µg/mL
- MIC ([1]; LYM broth, pH 6.5): 6.25 µg/mL
- MIC [1, 11]: 50 µg/mL
- MIC [2, 6]: 3.13 µg/mL
- MIC ([2]; LYM broth, 0.5 mM MgCl2): 3.13 µg/mL
- MIC ([2]; LYM broth, 1.5 mM MgCl2): 3.13 µg/mL
- MIC ([2]; LYM broth, 2.5 mM MgCl2): 3.13 µg/mL
- MIC [2, 7]: 3.13 µg/mL
- MIC [2, 8]: 6.25 µg/mL
- MIC [2, 9]: 50 µg/mL
- MIC [2, 10]: >50 µg/mL
- MIC ([2]; LYM broth, pH 4.5): 3.13 µg/mL
- MIC ([2]; LYM broth, pH 5.5): 3.13 µg/mL
- MIC ([2]; LYM broth, pH 6.5): 1.56 µg/mL
- MIC [2, 11]: 50 µg/mL
- GM G+ (geometric mean of the MIC values) [3]: 75.8 µg/mL
- Therapeutic Index (TI) G+ [3]: 1.4
- GM G− (geometric mean of the MIC values) [4]: 43.5 µg/mL
- Therapeutic Index (TI) G− [4]: 2.5
- MIC [5, 6]: 12.5 µg/mL
- MIC ([5]; LYM broth, 0.5 mM MgCl2): 12.5 µg/mL
- MIC ([5]; LYM broth, 1.5 mM MgCl2): 25 µg/mL
- MIC ([5]; LYM broth, 2.5 mM MgCl2): 25 µg/mL
- MIC [5, 7]: 25 µg/mL
- MIC [5, 8]: 50 µg/mL
- MIC [5, 9]: >50 µg/mL
- MIC [5, 10]: >50 µg/mL
- MIC ([5]; LYM broth, pH 4.5): 12.5 µg/mL
- MIC ([5]; LYM broth, pH 5.5): 12.5 µg/mL
- MIC ([5]; LYM broth, pH 6.5): 6.25 µg/mL
- MIC [5, 11]: >50 µg/mL
